Test results published in the NIST ThermoML archive (doi:10.1016/j.jct.2014.04.017).
Numbers after ± are expanded uncertainties.

Conditions: 101.33 kPa, Liquid, Buoyancy - hydrostatic balance

CCn1cc[n+](C)c1.O=S(=O)([N-]S(=O)(=O)C(F)(F)F)C(F)(F)F
Conditions	mass density [kg/m3]
261.46 K	1556.58 ± 1
268.29 K	1548.72 ± 1
273.3 K	1544.02 ± 1
278.37 K	1539.04 ± 1
282.48 K	1535.02 ± 1
287.45 K	1529.96 ± 1
293.11 K	1524.41 ± 1
298.13 K	1519.52 ± 1
302.98 K	1514.33 ± 1
308.32 K	1508.35 ± 1
313.89 K	1503.28 ± 1
318.09 K	1498.65 ± 1
323.34 K	1493.84 ± 1
328.03 K	1488.18 ± 1
333.55 K	1483.58 ± 1
337.88 K	1479.01 ± 1
342.95 K	1473.82 ± 1
348.1 K	1469.36 ± 1
352.98 K	1464.95 ± 1
357.53 K	1460.04 ± 1
363.55 K	1453.65 ± 1

CCCn1cc[n+](C)c1.F[P-](F)(F)(F)(F)F [1-methyl-3-propylimidazolium hexafluorophosphate]
Conditions	mass density [kg/m3]
303.08 K	1410.96 ± 0.46
313.18 K	1402.37 ± 0.45
318.04 K	1398.33 ± 0.45
323.07 K	1393.53 ± 0.45
328.22 K	1389.63 ± 0.45
333.39 K	1385.32 ± 0.45
338.41 K	1381.11 ± 0.44
343.27 K	1377.03 ± 0.44
348.16 K	1372.97 ± 0.44
352.56 K	1369.14 ± 0.44
358.11 K	1364.85 ± 0.44
364.89 K	1359.36 ± 0.44

CCCCCC[n+]1ccn(C)c1.O=S(=O)([N-]S(=O)(=O)C(F)(F)F)C(F)(F)F
Conditions	mass density [kg/m3]
262.98 K	1405.31 ± 0.54
268.26 K	1400.21 ± 0.54
272.74 K	1395.9 ± 0.54
278.03 K	1390.98 ± 0.54
283.18 K	1385.8 ± 0.54
288.12 K	1381.67 ± 0.54
292.84 K	1377.27 ± 0.54
298.15 K	1372.76 ± 0.54
303.13 K	1368.35 ± 0.54
308.26 K	1362.94 ± 0.54
313.34 K	1358.8 ± 0.54
318.28 K	1354.33 ± 0.54
323.34 K	1349.1 ± 0.54
328.18 K	1345.78 ± 0.54
332.77 K	1341.44 ± 0.54
338.51 K	1336.76 ± 0.54
343.65 K	1332.79 ± 0.54
348.22 K	1328.79 ± 0.54
352.66 K	1324.84 ± 0.54
358.06 K	1320.79 ± 0.54
364.78 K	1314.72 ± 0.54

CCCC[n+]1ccn(C)c1.O=S(=O)([N-]S(=O)(=O)C(F)(F)F)C(F)(F)F
Conditions	mass density [kg/m3]
274.86 K	1458.44 ± 0.56
277.17 K	1456.4 ± 0.56
281.91 K	1452.1 ± 0.56
287.89 K	1446.21 ± 0.56
293.45 K	1441.4 ± 0.56
298.34 K	1436.71 ± 0.56
303.07 K	1432.1 ± 0.56
308.18 K	1426.64 ± 0.56
313.04 K	1422.13 ± 0.56
318.02 K	1417.45 ± 0.56
323.1 K	1412.39 ± 0.56
328.17 K	1407.64 ± 0.56
333.42 K	1403.16 ± 0.56
338.42 K	1398.52 ± 0.56
343.02 K	1394.25 ± 0.56
348.36 K	1389.71 ± 0.56
352.89 K	1385.06 ± 0.56
358.03 K	1380.66 ± 0.56
364.37 K	1374.57 ± 0.56

C[n+]1cc[nH]c1.O=S(=O)([N-]S(=O)(=O)C(F)(F)F)C(F)(F)F [1-methylimidazolium bis(trifluoromethylsulfonyl)imide]
Conditions	mass density [kg/m3]
323.28 K	1614.04 ± 2.1
325.58 K	1610.84 ± 2.1
328.01 K	1607.46 ± 2.1
330.51 K	1605.18 ± 2.1
333.62 K	1601.54 ± 2.1
335.65 K	1599.35 ± 2.1
338.58 K	1596.52 ± 2.1
340.97 K	1593.47 ± 2
343.62 K	1590.71 ± 2

CCCC[n+]1cccc(C)c1.F[P-](F)(F)(F)(F)F [1-butyl-3-methylpyridinium hexafluorophosphate]
Conditions	mass density [kg/m3]
322.98 K	1321.09 ± 0.35
327.57 K	1317.44 ± 0.34
333.44 K	1312.89 ± 0.34
338.78 K	1308.72 ± 0.34
343.67 K	1304.93 ± 0.34
348.19 K	1301.53 ± 0.34
353.1 K	1297.87 ± 0.33
358.08 K	1294.06 ± 0.33
364.61 K	1289.01 ± 0.33

CCCCn1cc[n+](C)c1C.F[P-](F)(F)(F)(F)F [1-butyl-2,3-dimethylimidazolium hexafluorophosphate]
Conditions	mass density [kg/m3]
308.17 K	1342.4 ± 0.49
313.09 K	1338.43 ± 0.48
318.12 K	1334.34 ± 0.48
323.15 K	1330.39 ± 0.48
328.24 K	1326.32 ± 0.48
333.37 K	1322.54 ± 0.48
338.85 K	1318.34 ± 0.48
343.33 K	1314.8 ± 0.48
347.97 K	1310.87 ± 0.48
352.71 K	1307.2 ± 0.48
357.94 K	1302.89 ± 0.47
364.63 K	1298.26 ± 0.47
